# Results reported in patent publication US20100160391A1, “Substituted Aminopyridines as Fluorescent Reporters for Amide Hydrolases” (priority 2006, published 2010).
# Marks after values point to notes of the source that are not given here.
# Legend:
# [1] = Maximal excitation and emission wavelengths; type: physicochemical; conditions: 50 μM in 0.1 M phosphate buffer, 30° C.; SD ±2 nm
# Description: Maximal excitation and emission wavelengths. A stock solution in ethanol of each compound (10 μl, 5 mM) was added to 990 μl of sodium phosphate buffer (0.1 M, pH 8.0, final substrate concentration 50 μM) in a 1-cm quartz cuvette. The quartz cuvette was scanned from 200 to 500 nm for absorption spectra with a Spectra Max M2 spectrophotometer. Maximal excitation and emission wavelengths were obtained from scanning from 250 to 600 nm and 360 to 600 nm by a 2 nm interval at 30° C., respectively.
# [2] = Molar extinction coefficient of fluorescent reporters; type: physicochemical; conditions: H2O containing 1% ethanol, 290 nm, 30° C., 10-50 μM
# Description: Molar extinction coefficient. According to Beer's law, Aλ=ε*C*L, where Aλ is the absorbance at wavelength (λ nm); ε is called the molar extinction coefficient; L is the width of the sample cuvette; and C is the concentration of the solute. In this example, a series of concentrations falling between 10 and 50 μM (final concentration) for each fluorescent reporter was used for determination of the molar extinction coefficient. Assays were performed in a quartz cuvette (1 cm optical passage). 10 μl of a stock solution of a reporter in ethanol (1, 2, 3, 4, or 5 mM) was added to 990 μl H2O. The resulting mixture was degassed by sonication with ultrasonic cleaner Model 750 (VWR International; Wester, Pa.) for 10 seconds at a power level of 9. Measurements were performed with a Spectra Max M2 spectrophotometer (Molecular Devices; Sunnyvale, Calif.) at a wavelength of 290 nm. A slope (or extinction coefficient) was obtained by using an average absorbance of triplicate samples.
# [3] = Fluorescence quantum yield; type: physicochemical; conditions: 10 μM, 1% ethanol in water, excitation 290 nm, standard 3-aminopyridine; SD under ±5%
# Description: Quantum yield. The fluorescence quantum yield, φf, was calculated according to the following equation:
# ØF=Østd*(I/Istd)*(ODstd/OD)*(n/nstd)^2,
# wherein ØF is the quantum yield of the tested fluorescent reporter; Østd is the fluorescence quantum yield of the standard; I and Istd are the integrated emission intensities of the sample and the standard, respectively; OD and ODstd are the absorbance of the sample and standard, respectively, at the desired wavelength λex; and n and nstd are the indexes of refraction of the sample and standard solutions, respectively (Horspool and Song (Eds.), CRC Handbook of Organic Photochemistry I, pp 234-235, CRC Press, Boca Raton, Fla., 1995).
# In this example, 3-aminopyridine in water at the maximal excitation wavelength of 290 nm was used as a standard (Østd=0.32, εmax=2800 M^−1 cm^−1) (see, e.g., Weisstuch et al., J. Phys. Chem., 72:1982-1987 (1968)). In order to minimize inner filter effects, the optical densities of samples at the excitation wavelength (λ=290 nm) were kept in the range of 0.095-0.13 (less than 0.150-0.165). The final concentration of each tested sample in a quartz cuvette was 10 μM with 1% ethanol in water, same as that for the standard. The integrated area of fluorescent intensity for the standard or the samples was based on the area between 360 and 500 nm. The difference of the index of refraction between the standard and the sample was neglected because (1) all measurements were performed in the same quartz cuvette and spectrofluorimeter; (2) the final concentrations of the sample and the standard were the same; and (3) the structures of the sample and standard were very similar, i.e., only one pyridine ring. The quantum yields presented in Table 1 were based on calculation of the average of OD and integrated fluorescent intensities of triplicates. The standard deviation for each quantum yield was less than ±5%.
# [4] = molecular target: T1, L-Leucine aminopeptidase from porcine kidney microsomes (Sus scrofa, UniProt P15145); experiment: Sensitivity of L-Leucine aminopeptidase toward colorimetric and fluorescent substrates; type: biochemical; conditions: for base line, Average: 0 min; for base line, Average / signal, Average: 25 μM; for signal, Average: 10 min; for Protein, lowest detection limit of L-Leucine aminopeptidase (signal at 10 min ≥ 3 times base line): substrate 25 μM
# T1 construct: purchased Sigma-Aldrich L5006; host or cells: porcine kidney microsomes
# T1 sequence (P15145 1-963): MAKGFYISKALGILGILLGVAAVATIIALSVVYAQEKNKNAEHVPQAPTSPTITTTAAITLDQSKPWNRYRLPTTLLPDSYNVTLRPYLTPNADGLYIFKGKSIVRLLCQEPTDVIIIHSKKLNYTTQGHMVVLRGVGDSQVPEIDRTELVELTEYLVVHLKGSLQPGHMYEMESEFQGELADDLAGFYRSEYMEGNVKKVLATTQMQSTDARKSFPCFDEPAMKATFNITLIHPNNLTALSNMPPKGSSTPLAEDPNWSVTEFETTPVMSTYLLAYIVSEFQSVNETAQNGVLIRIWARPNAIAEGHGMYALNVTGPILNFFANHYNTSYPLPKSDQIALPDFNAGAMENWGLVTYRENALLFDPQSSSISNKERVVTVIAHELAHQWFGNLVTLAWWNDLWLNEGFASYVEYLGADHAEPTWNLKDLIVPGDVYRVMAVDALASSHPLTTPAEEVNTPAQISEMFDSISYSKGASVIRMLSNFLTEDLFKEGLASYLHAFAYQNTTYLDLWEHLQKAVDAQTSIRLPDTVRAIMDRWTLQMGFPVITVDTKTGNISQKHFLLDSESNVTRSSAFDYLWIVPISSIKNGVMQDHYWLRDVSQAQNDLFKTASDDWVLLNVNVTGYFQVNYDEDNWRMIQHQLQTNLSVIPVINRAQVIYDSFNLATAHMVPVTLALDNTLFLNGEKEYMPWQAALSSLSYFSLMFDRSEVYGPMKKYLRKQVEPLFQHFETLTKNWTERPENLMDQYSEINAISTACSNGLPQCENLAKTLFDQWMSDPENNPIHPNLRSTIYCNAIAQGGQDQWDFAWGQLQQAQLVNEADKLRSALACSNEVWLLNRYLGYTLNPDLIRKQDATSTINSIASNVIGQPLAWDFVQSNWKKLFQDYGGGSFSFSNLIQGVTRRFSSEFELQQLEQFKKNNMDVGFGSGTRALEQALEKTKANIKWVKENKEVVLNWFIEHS
# Description: Comparison of the sensitivities of L-Leucine aminopeptidase toward colorimetric and fluorescent substrates. In general, all assays were performed in 96-well styrene flat-bottom microtiter plates using a Spectra Max M2 spectrophotometer at 37° C. for 10 min. The total volume of each well was 201 μl containing 0.1 M sodium phosphate buffer (190 μl, pH 7.2), stock or diluted protein solution (10 μl), and 5 mM of the substrate solution (1 μl) in either ethanol for substrates (18) and (19). The lowest detection limit of microsomal L-Leucine aminopeptidase by substrates was determined by the fact that the signal at 10 min was equal to or over 3 times the basal line at 0 min. Colorimetric substrates assays (e.g., (20)) were performed in clear 96-well microtititer plates using an absorbance wavelength of 382 nm. The fluorescent substrates containing 5-amino-2-methoxypyridine (e.g., (19)) were measured at an excitation wavelength (302 nm), emission wavelength (396 nm), and auto cutoff wavelength (325 nm). Similarly, the fluorescent substrates containing 5-amino-2-methoxy-6-methylpyridine (e.g., (18)) were measured at an excitation wavelength (304 nm), emission wavelength (392 nm), and auto cutoff wavelength (325 nm).
# [5] = pH 7.2, 37° C., protein 1.97 (18), 0.018 (19) μg/well
# [6] = absorbance 382 nm, protein 1.97 μg/well
"Em, maximal emission wavelength [1]","Ex, maximal excitation wavelength [1]","εmax, molar extinction coefficient [2]","ØF, fluorescence quantum yield [3]","Protein, lowest detection limit of L-Leucine aminopeptidase (signal at 10 min ≥ 3 times base line) ([4]; pH 7.2, 37° C.)",SMILES,other results
–,–,–,–,0.018 μg/200 μL,"COc1ccc(NC(=O)[C@@H](N)CC(C)C)cn1 [Compound 19, N-(6-methoxypyridin-3-yl), (S)-2-amino-4-methylpentanamide]","base line, Average [4, 5]: 67 RFU/sec; signal, Average [4, 5]: 228* RFU/sec; times more sensitive than substrate (20) ([4]; Table 5): at least 100 times"
–,–,–,–,1.97 μg/200 μL,"COc1ccc(NC(=O)[C@@H](N)CC(C)C)c(C)n1 [Compound 18, N-(6-methoxy-2-methylpyridin-3-yl), (S)-2-amino-4-methylpentanamide]","base line, Average [4, 5]: 164 RFU/sec; signal, Average [4, 5]: 494* RFU/sec"
–,–,–,–,1.97 μg/200 μL,"CC(C)C[C@H](N)C(=O)Nc1ccc([N+](=O)[O-])cc1 [Compound 20, L-Leucine-p-nitroanilide]","base line, Average [4, 6]: 0.08 OD; signal, Average [4, 6]: 0.24* OD"

# Continued, molecule first:
SMILES,"Em, maximal emission wavelength [1]","Ex, maximal excitation wavelength [1]","εmax, molar extinction coefficient [2]","ØF, fluorescence quantum yield [3]","Protein, lowest detection limit of L-Leucine aminopeptidase (signal at 10 min ≥ 3 times base line) ([4]; pH 7.2, 37° C.)",other results
"Cc1ccc(N)cn1 [Compound 3, 3-amino-6-methylpyridine]",384 nm,290 nm,2700 M⁻¹ cm⁻¹,0.62,–,–
"COc1ncccc1N [Compound 7, 3-amino-2-methoxypyridine]",378 nm,284 nm,4670 M⁻¹ cm⁻¹,0.27,–,–
"Cc1ccncc1N [Compound 2, 3-amino-4-methylpyridine]",376 nm,280 nm,2580 M⁻¹ cm⁻¹,0.53,–,–
"COc1ccc(N)c(C)n1 [Compound 8, 3-amino-6-methoxy-2-picoline]",392 nm,304 nm,4130 M⁻¹ cm⁻¹,0.97,–,–
"COc1ccc(NC(C)=O)c(C)n1 [Compound 11, N-(6-methoxy-2-methylpyridin-3-yl) acetamide]",–,–,–,–,–,melting point: 130.1 to 130.4 °C
"Nc1ccc(F)nc1 [Compound 5, 5-amino-2-fluoropyridine]",384 nm,292 nm,2360 M⁻¹ cm⁻¹,0.72,–,–
"Nc1cccnc1F [Compound 4, 3-amino-2-fluoropyridine]",374 nm,282 nm,3670 M⁻¹ cm⁻¹,0.04,–,–
